Literature values, collected in PMC3466449 (Scientific Reports, 2012).
Non-standard residues stand in square brackets, D forms with d. No end group written: not given here. pGlu = O=C1CC[C@@H](C(=O)O)N1

System: C-domain of sACE
Conditions: C-domain over N-domain of sACE

| Compound | C-domain selectivity |
| --- | --- |
| O=C(N[C@@H](Cc1ccccc1)P(=O)(O)C1CCCC1C(=O)N[C@@H](Cc1c[nH]c2ccccc12)C(=O)O)OCc1ccccc1 (some centres unmarked) [RXPA380] | approximately 3000 fold |
| [pGlu]GLPPRPKIPP [BPPb, bradykinin potentiating peptide b] | about 260 fold |
